Patent US12606572B2, “Substituted heterocycles and uses thereof” (Kumquat Biosciences Inc., priority 2023, dated 2026)

Experiments:
KRAS WT = biological target: T1, KRAS WT (Homo sapiens, UniProt P01116); assay: HTRF assay, interaction of GST-tagged K-Ras with His-tagged hSOS1 (KRAS wildtype); type: biochemical; details: <500 nM, read-out: Inhibition of KRAS WT (IC50)
T1 construct: made in house; host or cells: E. coli BL21 (DE3)
Description: (§1) This assay can be also used to assess a selective inhibition or reduction of signaling output of a mutant Ras protein relative to a wildtype, or relative to a different mutant Ras protein. For example, the equilibrium interaction of wildtype KRAS or K-Ras mutant (e.g., wildtype or a mutant thereof) with SOS1 (e.g., hSOS1) can be assessed as a proxy or an indication for the ability of a subject compound to bind and inhibit Ras protein. The HTRF assay detects from (i) a fluorescence resonance energy transfer (FRET) donor (e.g., antiGST-Europium) that is bound to GST-tagged K-Ras mutant to (ii) a FRET acceptor (e.g., anti-6His-XL665) bound to a His-tagged hSOS1.
(§2) The assay buffer can contain ˜5 mM HEPES pH 7.4, ˜150 mM NaCl, ˜1 mM DTT, 0.05% BSA and 0.0025% (v/v) Igepal. A Ras working solution is prepared in an assay buffer containing typically a suitable amount of the protein construct (e.g., GST-tagged K-Ras mutant) and the FRET donor (e.g., antiGST-Eu(K) from Cisbio, France). A SOS1 working solution is prepared in an assay buffer containing suitable amount of the protein construct (e.g., His-hSOS1) and the FRET acceptor (e.g., anti-6His-XL665 from Cisbio, France). A suitable amount of the protein construct will depend on the range of activity or range of IC50 values being detected or under investigation. For detecting an IC50 within a range of 500 nM, the protein constructs of the same range of molarity can be utilized.
(§3) A fixed volume of DMSO with or without test compound is transferred into a 384-well plate. Ras working solution is added to all wells of the test plate. SOS1 working solution is added to all wells except for those that are subsequently filled with inhibitor control solution. Upon incubation for about 10 minutes or longer, the fluorescence is measured with a M1000Pro plate reader (Tecan) using HTRF detection (excitation 337 nm, emission 1: 620 nm, emission 2: 665 nm). Compounds are tested in duplicate at different concentrations (for example, 10 μM, 2.5 μM, 0.63 μM, 0.16 μM, 0.04 μM, 0.01 μM test compound). The ratiometric data (i.e., emission 2 divided by emission 1) is used to calculate IC50 values against Ras using GraphPad Prism (GraphPad software). Signaling output measured in terms of IC50 values can be obtained and a ratio of IC50 against one mutant relative to another mutant can be calculated. For instance, a selective reduction of K-Ras G12S signaling output can be evidenced by a ratio greater than one. In particular, a selective reduction of K-Ras G12S signaling relative to K-Ras WT signaling is evidenced if the ratio of IC50 (against K-Ras WT) to IC50 (against K-Ras G12S) is greater than 1.

KRAS G12S = biological target: T2, KRAS G12S (Homo sapiens, UniProt P01116, G12S); assay: HTRF assay, interaction of GST-tagged K-Ras with His-tagged hSOS1 (KRAS G12S); type: biochemical; details: <500 nM, read-out: Inhibition of KRAS G12S (IC50)
T2 construct: made in house; host or cells: E. coli BL21 (DE3)
T2 sequence (P01116 1-188 isoform P01116-2 G12S): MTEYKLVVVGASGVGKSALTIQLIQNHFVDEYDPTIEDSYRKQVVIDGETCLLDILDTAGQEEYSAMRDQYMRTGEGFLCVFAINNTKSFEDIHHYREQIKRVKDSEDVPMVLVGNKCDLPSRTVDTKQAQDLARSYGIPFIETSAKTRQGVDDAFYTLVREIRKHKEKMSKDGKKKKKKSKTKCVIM
Description: as §1, §2, §3

T1 sequence (P01116 1-188 isoform P01116-2): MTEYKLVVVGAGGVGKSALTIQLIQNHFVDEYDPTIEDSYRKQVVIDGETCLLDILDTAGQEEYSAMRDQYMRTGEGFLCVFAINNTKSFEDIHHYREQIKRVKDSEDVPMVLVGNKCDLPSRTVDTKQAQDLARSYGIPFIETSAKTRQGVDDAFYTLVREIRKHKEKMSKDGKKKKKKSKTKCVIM

Row | Structure (SMILES) | IC50 (KRAS WT) | IC50 (KRAS G12S)
1 | Cc1cn(C(=O)N(C)[C@@H]2C[C@@H]3CCOc4c(Cl)c(-c5ccc(F)c6sc(N)c(C#N)c56)c(F)c5nc(OC[C@@]67CCCN6C[C@H](F)C7)nc(c45)N3C2)cn1 (single isomer, unassigned) [Compound 472] | < 500 nM | < 500 nM
2 | C[C@@H]1[C@H](N2CCOc3c(Cl)c(-c4ccc(F)c5sc(N)c(C#N)c45)c(F)c4nc(OC[C@@]56CCCN5C[C@H](F)C6)nc2c34)CCN1C(=O)n1ccnc1 (single isomer, unassigned) [Compound 474] | < 500 nM | < 500 nM
3 | Cc1ncn(C(=O)N2C[C@@H](CN3CCOc4c(Cl)c(-c5ccc(F)c6sc(N)c(C#N)c56)c(F)c5nc(OC[C@@]67CCCN6C[C@H](F)C7)nc3c45)[C@H]2C2(C)CC2)c1C (single isomer, unassigned) [Compound 476] | < 500 nM | < 500 nM
4 | Cc1cn(C(=O)N2CC[C@@H](N3CCOc4c(Cl)c(-c5ccc(F)c6sc(N)c(C#N)c56)c(F)c5nc(OC[C@@]67CCCN6C[C@H](F)C7)nc3c45)[C@H]2C)c(C)n1 [Compound 403, 2-amino-4-(8-chloro-4-((2R,3R)-1-(2,4-dimethyl-1H-imidazole-1-carbonyl)-2-methylpyrrolidin-3-yl)-10-fluoro-2-(((2R,7aS)-2-fluorotetrahydro-1H-pyrrolizin-7a(5H)-yl)methoxy)-5,6-dihydro-4H-[1,4]oxazepino[5,6,7-de]quinazolin-9-yl)-7-fluorobenzo[b]thiophene-3-carbonitrile] | < 500 nM | < 500 nM
5 | C[C@@H]1[C@H](N2c3nc(OC[C@@]45CCCN4C[C@H](F)C5)nc4c(F)c(-c5ccc(F)c6sc(N)c(C#N)c56)c(Cl)c(c34)OC[C@@H]2C)CCN1C(=O)n1cnc(C#N)c1 [Compound 406, 1-((2R,3R)-3-((5S)-9-(2-amino-3-cyano-7-fluorobenzo[b]thiophen-4-yl)-8-chloro-10-fluoro-2-(((2R,7aS)-2-fluorotetrahydro-1H-pyrrolizin-7a(5H)-yl)methoxy)-5-methyl-5,6-dihydro-4H-[1,4]oxazepino [5,6,7-de]quinazolin-4-yl)-2-methylpyrrolidine-1-carbonyl)-1H-imidazole-4-carbonitrile] | < 500 nM | < 500 nM
6 | Cc1cn(C(=O)N2CC[C@@H](N3CCCc4nc(-c5ccc(F)c6sc(N)c(C#N)c56)c(F)c5nc(OC[C@@]67CCCN6C[C@H](F)C7)nc3c45)[C@H]2C)c(C)n1 [Compound 409, 2-amino-4-(10-((2R,3R)-1-(2,4-dimethyl-1H-imidazole-1-carbonyl)-2-methylpyrrolidin-3-yl)-4-fluoro-2-(((2R,7aS)-2-fluorotetrahydro-1H-pyrrolizin-7a (5H)-yl)methoxy)-7,8,9,10-tetrahydro-1,3,6,10-tetraazacyclohepta[de]naphthalen-5-yl)-7-fluorobenzo[b]thiophene-3-carbonitrile] | < 500 nM | < 500 nM
7 | C=CC(=O)N1CC[C@@H](N2CCCOc3c(Cl)c(-c4ccc(F)c5sc(N)c(C#N)c45)c(F)c4nc(OC[C@@]56CCCN5C[C@H](F)C6)nc2c34)[C@H]1C [Compound 411, 4-(4-((2R,3R)-1-acryloyl-2-methylpyrrolidin-3-yl)-9-chloro-11-fluoro-2-(((2R,7aS)-2-fluorotetrahydro-1H-pyrrolizin-7a (5H)-yl)methoxy)-4,5,6,7-tetrahydro-[1,5]oxazocino-[4,3,2-de]quinazolin-10-yl)-2-amino-7-fluorobenzo[b]thiophene-3-carbonitrile] | < 500 nM | < 500 nM
8 | CC1([C@@H]2[C@H](CN3CCOc4c(Cl)c(-c5ccc(F)c6sc(N)c(C#N)c56)c(F)c5nc(OC[C@@]67CCCN6C[C@H](F)C7)nc3c45)CN2C(=O)n2ccnc2)CC1 [Compound 486, 4-(4-(((2S,3R)-1-(1H-imidazole-1-carbonyl)-2-(1-methylcyclopropyl)azetidin-3-yl)methyl)-8-chloro-10-fluoro-2-(((2R,7aS)-2-fluorotetrahydro-1H-pyrrolizin-7a(5H)-yl)methoxy)-5,6-dihydro-4H-[1,4]oxazepino [5,6,7-de]quinazolin-9-yl)-2-amino-7-fluorobenzo[b] thiophene-3-carbonitrile] |  | < 500 nM

More lines, now with the values ahead:

Row | IC50 (KRAS WT) | IC50 (KRAS G12S) | Structure (SMILES)
9 | < 500 nM | < 500 nM | C[C@@H]1[C@H](N2C[C@H](C)Oc3c(Cl)c(-c4ccc(F)c5sc(N)c(C#N)c45)c(F)c4nc(OC[C@@]56CCCN5C[C@H](F)C6)nc2c34)CCN1C(=O)n1cnc(Cl)n1 (atropisomer, axis not shown; (aS)) [Compound 407, 2-amino-4-((6S,9R)-8-chloro-4-((2R,3R)-1-(3-chloro-1H-1,2,4-triazole-1-carbonyl)-2-methylpyrrolidin-3-yl)-10-fluoro-2-(((2R,7aS)-2-fluorotetrahydro-1H-pyrrolizin-7a (5H)-yl)methoxy)-6-methyl-5,6-dihydro-4H-[1,4]oxazepino[5,6,7-de]quinazolin-9-yl)-7-fluorobenzo[b]thiophene-3-carbonitrile]
10 | < 500 nM | < 500 nM | C[C@H](O)[C@H]1COc2c(Cl)c(-c3ccc(F)c4sc(N)c(C#N)c34)c(F)c3nc(OC[C@@]45CCCN4C[C@H](F)C5)nc(c23)N1C[C@H]1CN(C(=O)n2ccnc2)[C@@H]1C (single isomer, unassigned) [Compound 402]
11 | < 500 nM | < 500 nM | CC(C)[C@@H]1[C@H](CN2CCOc3c(Cl)c(-c4ccc(F)c5sc(N)c(C#N)c45)c(F)c4nc(OC[C@@]56CCCN5C[C@H](F)C6)nc2c34)CN1C(=O)n1cnc(F)n1 (single isomer, unassigned) [Compound 408]
12 | < 500 nM | < 500 nM | CC(C)[C@@H]1[C@@H](CN2c3nc(OC[C@@]45CCCN4C[C@H](F)C5)nc4c(F)c(-c5ccc(F)c6sc(N)c(C#N)c56)c(Cl)c(c34)OC[C@@H]2[C@H](C)O)CN1C(=O)n1ccnc1 (single isomer, unassigned) [Compound 410]
13 | < 500 nM | < 500 nM | CC1([C@@H]2[C@H](CN3CCOc4c(Cl)c(-c5ccc(F)c6sc(N)c(C#N)c56)c(F)c5nc(OC[C@@]67CCCN6C[C@H](F)C7)nc3c45)CN2C(=O)n2cnc(F)n2)CC1 (single isomer, unassigned) [Compound 420]
14 | < 500 nM | < 500 nM | C[C@@H]1[C@H](N2CCOc3c(Cl)c(-c4ccc(F)c5sc(N)c(C#N)c45)c(F)c4nc(OC[C@@]56CCCN5C[C@H](F)C6)nc2c34)CCN1C(=O)n1cnc(F)n1 (single isomer, unassigned) [Compound 426]
15 | < 500 nM | < 500 nM | C[C@@H]1[C@H](N2c3nc(OC[C@@]45CCCN4C[C@H](F)C5)nc4c(F)c(-c5ccc(F)c6sc(N)c(C#N)c56)c(Cl)c(c34)OC[C@@H]2C)CCN1C(=O)n1ccnc1 (single isomer, unassigned) [Compound 432]
16 | < 500 nM | < 500 nM | CC(C)(C)[C@@H]1[C@H](CN2CCOc3c(Cl)c(-c4ccc(F)c5sc(N)c(C#N)c45)c(F)c4nc(OC[C@@]56CCCN5C[C@H](F)C6)nc2c34)CN1C(=O)n1cnc(F)n1 (single isomer, unassigned) [Compound 434]
17 | < 500 nM | < 500 nM | C[C@H](O)[C@H]1COc2c(Cl)c(-c3ccc(F)c4sc(N)c(C#N)c34)c(F)c3nc(OC[C@@]45CCCN4C[C@H](F)C5)nc(c23)N1C[C@@H]1CN(C(=O)n2ccnc2)[C@@H]1C (single isomer, unassigned) [Compound 446]
18 | < 500 nM | < 500 nM | Cc1c(C#N)ncn1C(=O)N1C[C@@H](CN2CCOc3c(Cl)c(-c4ccc(F)c5sc(N)c(C#N)c45)c(F)c4nc(OC[C@@]56CCCN5C[C@H](F)C6)nc2c34)[C@H]1C1(C)CC1 (single isomer, unassigned) [Compound 452]
